Assays:
DYRK1A kinase domain = biological target: T1, DYRK1A kinase domain (Homo sapiens, UniProt Q13627); experiment: MST direct binding assay
T1 construct: kinase domain of DYRK1A (126–490) was cloned into pET24a with C-terminal His-tag; made in house; host or cells: E. coli BL21 (DE3) RIL

DYRK1A = biological target: T2, DYRK1A (Homo sapiens, UniProt Q13627); experiment: Cook activity assay (ATP regenerative NADH consuming DYRK1A activity assay); type: biochemical
T2 construct: kinase domain of DYRK1A (126–490) was cloned into pET24a with C-terminal His-tag; His-tag (C); made in house; host or cells: E. coli BL21 (DE3) RIL

INS-1E and MIN6 cells = experiment: Ki67 proliferation analysis; type: cell-based, rat, mouse
[1] = system: hiPSC-derived pancreatic organoids; experiment: Insulin secretion assay in hiPSC-derived β-cell organoids (ELISA); type: cell-based, human; design: key to insulin secretion (ELISA): ↑: moderate; ↑↑: most potent
Method: Differentiation of hiPSC into iPSC-derived β-cell islets was carried out following the protocol established by Pellegrini et al. for pluripotent stem cells with slight modifications. A day before differentiation, 800,000 cells were seeded on coated with Geltrex (Gibco) 12 wells plate in Essential 8 medium (Gibco) with Y-27632 10 µM (Abcam). The following culture media were used for differentiation:
M1 medium: MCDB131 (Gibco) + 8 mM D-(þ)-Glucose (Sigma) + 1.23 g/L NaHCO3 (Sigma) + 2% BSA (Sigma) + 0.25 mM Vitamin C (Sigma) + 1% Pen/Strep (Lonza, Basel, Switzerland) + 1% L-glutamine (Lonza);
M2 medium: MCDB131 + 20 mM D-Glucose + 1.754 g/L NaHCO3 + 2% BSA + 0.25 mM Vitamin C + Heparin 10mg/mL (Sigma) + 1% Pen/Strep + 1% L-glutamine. All media were filter-sterilized through a 0.22 µm bottle top filter (Corning, New York, NY, USA). For sequential culture medium changes, small molecules and growth factors were added to the base media immediately before daily exchange. Media switches were as follows: days 0–3: STEMdiff™ Definitive Endoderm Kit ([…], Vancouver, Canada) used following manufacturer instructions; days 4–6: M1 medium + 50 ng/mL KGF (Peprotech, London, UK) + 1:50,000 ITS-X (Invitrogen, Carlsbad, CA, USA); days 7–8: M1 medium + 50 ng/mL KGF + 0.25 µM Sant1 (Sigma) + […] Retinoic acid (RA) (Sigma) + 500 nM PdBU (Millipore, Berlington, MA, United States) + 1:200 ITS-X + 200 nM LDN193189 (only Day 7) (Sigma); days 9–13: M1 medium + 50 ng/mL KGF + 0.25 µM Sant1 + 100 nM RA + 1:200 ITS-X; days 14–18: M2 medium + 0.25 µM Sant1 + 100 nM RA + 1 µM XXI (Millipore) + 10 µM Alk5i II (Selleckchem, Munich, Germany) + 1 µM L-3,30,5-Triiodothyronine (T3) (Sigma) + 20 ng/mL Betacellulin (R&D, Minneapolis, MN, USA) + 1:200 ITS-X.
The Insulin ELISA (Ultra Sensitive) was used to quantify insulin levels in control and treated organoids and isolated islets from the mouse pancreas (Crystal Chem, Downers Grove, IL, USA). Islets were homogenized in lysis buffer. Obtained buffer lysates and medium samples (after GSIS) were analyzed for total protein level and subsequently processed following the manufacturer’s protocol.

[2] = Table 2, Biochemistry, unit inferred

Kd (DYRK1A kinase domain; MST direct binding, 20 nM fluorescent-labelled DYRK1A kinase domain): 1800 ± 500 nM | Kd (DYRK1A kinase domain; [2]): 1830 ± 543 nM | Ki (DYRK1A; Cook assay, DYRK1A 0.5 µM, ATP 128 µM, DYRKtide 1 mM): 200 ± 300 nM | Ki (DYRK1A; Cook assay, phosphorylation of substrate peptide): < 200 nM | Ki (DYRK1A; [2]): 170 ± 260 nM
SMILES: O=c1ccc2cnc3ccc(-c4cn[nH]c4)cc3c2n1-c1ccc(F)cc1C(F)(F)F [AC27, 1-(4-fluoro-2-(trifluoromethyl)phenyl)-9-(1H-pyrazol-4-yl)benzo[h][1, 6]naphthyridin-2-one]
induction of β-cell proliferation (Ki67 labeling of insulin-labeled cells) (INS-1E and MIN6 cells; 5 μM, vs untreated cells): most potent in inducing β-cell proliferation | Ki67 labeling index in β-cells (INS-1E and MIN6 cells; combined with RepSox or LY364947): significant increase in the Ki67 labeling index | Ki67 labeling index, difference to that without TGF-β inhibition (INS-1E and MIN6 cells; combined with TGF-β inhibitors): about 5% | Ki67 labeling index (proliferation rate) (INS-1E and MIN6 cells; combined with TGF-β inhibitors (RepSox, LY364947), 5 μM each): > 12% | insulin release ([1]; GSIS, compared with untreated control cells): markedly increased insulin release | insulin secretion (ELISA) ([1]; Table 2, hiPSC): ↑

Source: paper PMC8467532, “DYRK1A Kinase Inhibitors Promote β-Cell Survival and Insulin Homeostasis” (Cells, 2021)
